Among the data in US11912668B2, “GCN2 and perk kinase inhibitors and methods of use thereof” (Deciphera Pharmaceuticals, LLC, priority 2020, dated 2024) are IC50 values, retold here.

In one test the target is GCN2 kinase (Homo sapiens (Human), UniProt Q9P2K8). Description: Biochemical assay for GCN2 (TR-FRET kinase activity assay). Conditions: 1 mM ATP, 3-hour incubation. In a few lines:
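TR-FRET assay with 2 nM GCN2, 130 nM GFP-eIF2α substrate, 0.2 mg/mL E. coli tRNA and 1 mM ATP; compounds (0.5% DMSO) reacted 3 h. Stopped with 20 mM EDTA plus 2 nM Tb-anti-peIF2α (pSer52), 60 min RT; 520/490 ratio converted to % inhibition, IC50 from four-parameter fit.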

In another test the target is PERK kinase (Homo sapiens (Human), UniProt Q9NZJ5). As to the kind of experiment: Biochemical assay for PERK (coupled pyruvate kinase/lactate dehydrogenase assay). Conditions: 1 mM ATP, rate from 2-3 h time frame. Put shortly: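 Coupled pyruvate kinase/lactate dehydrogenase readout of ATP hydrolysis via NADH oxidation (A340), 10 nM PERK, 0.25 mg/mL myelin basic protein, 1 mM ATP, pH 7.5 Tris/MgCl2 buffer, 1% DMSO. Absorbance followed 6 h at 30° C; rate from the 2-3 h window, normalised to no-compound and known-inhibitor controls, IC50 fitted.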
Sequence of PERK kinase (Q9NZJ5 other isoform, or with tags, fused parts or gaps): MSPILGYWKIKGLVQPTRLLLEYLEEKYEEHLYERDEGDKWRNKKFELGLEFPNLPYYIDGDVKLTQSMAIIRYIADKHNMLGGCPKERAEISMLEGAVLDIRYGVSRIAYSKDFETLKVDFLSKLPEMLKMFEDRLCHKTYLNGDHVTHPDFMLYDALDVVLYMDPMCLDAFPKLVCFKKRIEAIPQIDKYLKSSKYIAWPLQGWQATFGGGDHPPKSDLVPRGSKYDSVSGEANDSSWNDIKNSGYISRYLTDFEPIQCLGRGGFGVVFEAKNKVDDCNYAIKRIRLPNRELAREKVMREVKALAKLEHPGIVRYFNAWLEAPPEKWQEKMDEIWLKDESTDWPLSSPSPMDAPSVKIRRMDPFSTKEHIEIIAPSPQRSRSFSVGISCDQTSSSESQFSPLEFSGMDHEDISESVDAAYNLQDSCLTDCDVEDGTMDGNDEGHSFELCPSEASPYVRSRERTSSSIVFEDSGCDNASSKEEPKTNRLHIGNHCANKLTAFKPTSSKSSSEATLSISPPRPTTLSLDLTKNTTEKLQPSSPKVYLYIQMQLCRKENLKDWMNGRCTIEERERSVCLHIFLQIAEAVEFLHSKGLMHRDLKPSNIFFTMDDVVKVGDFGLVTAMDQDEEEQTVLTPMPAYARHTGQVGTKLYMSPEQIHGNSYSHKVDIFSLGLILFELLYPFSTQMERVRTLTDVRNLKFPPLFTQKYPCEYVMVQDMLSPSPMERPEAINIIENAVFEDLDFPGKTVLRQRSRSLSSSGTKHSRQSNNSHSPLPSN

For another test, the system named is CCRF-CEM leukemia cells. Description: CCRF-CEM ASNase cell proliferation assay, phenotypic assay for cellular inhibition of GCN2. Format: cell-based. The settings on record: Homo sapiens; ASNase treated CCRF-CEM cells, 1 mU/mL ASNase, 72 h. The protocol: CCRF-CEM leukemia cells (catalog #CCL-116) were obtained from the American Type Culture Collect (ATTC, Manassas, VA). Cells were grown in RPMI-1640 medium supplemented with 10% heat-inactivated fetal bovine serum (Invitrogen, Carlsbad, CA) and 1% Penicillin/Streptomycin/L-Glutamine at 37° C., 5% CO2, and 95% humidity. Cells were expanded until reaching one million cells per mL at which time they are subcultured or harvested for assay use. Ten thousand cells per well in 200 μL RPMI-1640 supplemented with 10% heat-inactivated fetal bovine serum and 1% Penicillin/Streptomycin were dispensed into a 96-well black clear bottom plate. A serial dilution of test compound and 1 mU/mL ASNase was added in triplicate and plates were incubated for 72 h at 37° C., 5% CO2, and 95% humidity. At the end of the incubation, 40 μL of a […] solution of resazurin (Sigma, St. Louis, MO) in PBS was added to each well of the plate and plates were incubated for an additional 6 h at 37° C., 5% CO2, and 95% humidity. Plates were read on a Synergy2 or equivalent reader (Biotek, Winooski VT) using an excitation of 540 nm and an emission of 600 nm. Data was analyzed using GraphPad Prism software (GraphPad, San Diego, CA) to calculate IC50 values.

Test [1] deals with phospho-GCN2 (Thr899) in HCT116 colorectal cancer cells. Description: HCT116 amino acid starved (-AA) phospho-GCN2 assay (Western blot). Format: cell-based. Conditions: Homo sapiens, HCT-116, 4 h, read-out: HCT116-AA pGCN2 Western Blot. The protocol: (§1) HCT116 colorectal cancer cells (catalog #CCL-247) were obtained from the American Type Culture Collect (ATTC, Manassas, VA). Briefly, cells were grown in RPMI 1640 supplemented with 10% heat inactivated fetal bovine serum (Invitrogen, Carlsbad, CA) and 1% Penicillin/Streptomycin/L-Glutamine at 37° C., 5% CO2, and 95% humidity. Cells were expanded until reaching 70-95% confluency at which point they were subcultured or harvested for assay use. Cells were seeded in 12-well culture plate at five hundred thousand cells per well in 1 mL complete growth medium and incubated overnight at 37° C., 5% CO2, and 95% humidity. The next day each well was replaced with 1 mL Earle's Balanced Salt Solution (EBSS, Invitrogen, Carlsbad, CA) supplemented with 10% Dialyzed Fetal Bovine Serum, 5.5 mM Glucose, 1% Penicillin/Streptomycin and 1% Vitamin solution (thermo #11120052). A serial dilution of test compound was dispensed into well. Plates were incubated for 4 h at 37° C., 5% CO2, and 95% humidity. At the end of the incubation, cells were washed with PBS supplemented with 1× Halt protease inhibitor, 1× Halt phosphatase inhibitor, 1× Sigma phosphatase inhibitor cocktail 2 and 1×EDTA and then lysed with M-PER Mammalian Protein Extraction Reagent supplemented with 3× of the inhibitor mix as described above. Cell lysates were sonicated with water bath sonicator (Qsonica, Newtown, CT) and supernatants were boiled with SDS buffer and reducing agent. Western blot was performed on each lysate to quantify phospho-GCN2 (Thr899), total GCN2, ATF4 and beta-Actin. Membranes were imaged with LI-COR Odyssey CLx Imaging System (LI-COR, Lincoln, NE). Data were analyzed using GraphPad Prism software (GraphPad, San Diego, CA) to calculate IC50 values.
For orientation: In western blotting, separated proteins are transferred to a membrane and probed.

For test [2], the system named is ATF4 in HCT116 colorectal cancer cells. Description: HCT116 amino acid starved (-AA) ATF4 assay (Western blot). Format: cell-based. Conditions: Homo sapiens, HCT-116, 4 h. As to the method:
as §1

In test [3] the test system is ATF4 in CCRF-CEM leukemia cells (PERK). Description: CCRF-CEM TG ATF4 ELISA, phenotypic assay for cellular inhibition of PERK preactivated by thapsigargin. In kind it is cell-based. Conditions: Homo sapiens; Thapsigargin (1 μM) stimulated CCRF-CEM cells. The protocol:
CCRF-CEM leukemia cells (catalog #CCL-116) were obtained from the American Type Culture Collection (ATTC, Manassas, VA). Briefly, cells were grown in RPMI-1640 medium supplemented with 10% heat-inactivated fetal bovine serum (Invitrogen, Carlsbad, CA) and 1% Penicillin/Streptomycin/L-Glutamine at 37° C., 5% CO2, and 95% humidity. Cells were expanded until reaching one million cells per mL at which time they were subcultured or harvested for assay use. One million five hundred thousand cells per well in 1 mL complete growth medium were dispensed into 12-well plates and incubated overnight. A serial dilution of test compound was added and cells were incubated at 37° C., 5% CO2, and 95% for three hours, then 1 μM thapsigargin was added and cells were incubated for an additional hour at 37° C., 5% CO2, and 95%. Cells were lysed then ATF4 levels were measured using an ELISA assay (Proteintech, Rosemont, IL). Absorbance was measured at 450 nm and 544 nM using a Synergy2 or equivalent reader (Biotek, Winooski VT). Data was analyzed using PRISM software (Graphpad, San Diego, CA) to calculate IC50 values.
A general note: ELISA stands for enzyme-linked immunosorbent assay.

Sequence of GCN2 kinase (Q9P2K8 whole entry): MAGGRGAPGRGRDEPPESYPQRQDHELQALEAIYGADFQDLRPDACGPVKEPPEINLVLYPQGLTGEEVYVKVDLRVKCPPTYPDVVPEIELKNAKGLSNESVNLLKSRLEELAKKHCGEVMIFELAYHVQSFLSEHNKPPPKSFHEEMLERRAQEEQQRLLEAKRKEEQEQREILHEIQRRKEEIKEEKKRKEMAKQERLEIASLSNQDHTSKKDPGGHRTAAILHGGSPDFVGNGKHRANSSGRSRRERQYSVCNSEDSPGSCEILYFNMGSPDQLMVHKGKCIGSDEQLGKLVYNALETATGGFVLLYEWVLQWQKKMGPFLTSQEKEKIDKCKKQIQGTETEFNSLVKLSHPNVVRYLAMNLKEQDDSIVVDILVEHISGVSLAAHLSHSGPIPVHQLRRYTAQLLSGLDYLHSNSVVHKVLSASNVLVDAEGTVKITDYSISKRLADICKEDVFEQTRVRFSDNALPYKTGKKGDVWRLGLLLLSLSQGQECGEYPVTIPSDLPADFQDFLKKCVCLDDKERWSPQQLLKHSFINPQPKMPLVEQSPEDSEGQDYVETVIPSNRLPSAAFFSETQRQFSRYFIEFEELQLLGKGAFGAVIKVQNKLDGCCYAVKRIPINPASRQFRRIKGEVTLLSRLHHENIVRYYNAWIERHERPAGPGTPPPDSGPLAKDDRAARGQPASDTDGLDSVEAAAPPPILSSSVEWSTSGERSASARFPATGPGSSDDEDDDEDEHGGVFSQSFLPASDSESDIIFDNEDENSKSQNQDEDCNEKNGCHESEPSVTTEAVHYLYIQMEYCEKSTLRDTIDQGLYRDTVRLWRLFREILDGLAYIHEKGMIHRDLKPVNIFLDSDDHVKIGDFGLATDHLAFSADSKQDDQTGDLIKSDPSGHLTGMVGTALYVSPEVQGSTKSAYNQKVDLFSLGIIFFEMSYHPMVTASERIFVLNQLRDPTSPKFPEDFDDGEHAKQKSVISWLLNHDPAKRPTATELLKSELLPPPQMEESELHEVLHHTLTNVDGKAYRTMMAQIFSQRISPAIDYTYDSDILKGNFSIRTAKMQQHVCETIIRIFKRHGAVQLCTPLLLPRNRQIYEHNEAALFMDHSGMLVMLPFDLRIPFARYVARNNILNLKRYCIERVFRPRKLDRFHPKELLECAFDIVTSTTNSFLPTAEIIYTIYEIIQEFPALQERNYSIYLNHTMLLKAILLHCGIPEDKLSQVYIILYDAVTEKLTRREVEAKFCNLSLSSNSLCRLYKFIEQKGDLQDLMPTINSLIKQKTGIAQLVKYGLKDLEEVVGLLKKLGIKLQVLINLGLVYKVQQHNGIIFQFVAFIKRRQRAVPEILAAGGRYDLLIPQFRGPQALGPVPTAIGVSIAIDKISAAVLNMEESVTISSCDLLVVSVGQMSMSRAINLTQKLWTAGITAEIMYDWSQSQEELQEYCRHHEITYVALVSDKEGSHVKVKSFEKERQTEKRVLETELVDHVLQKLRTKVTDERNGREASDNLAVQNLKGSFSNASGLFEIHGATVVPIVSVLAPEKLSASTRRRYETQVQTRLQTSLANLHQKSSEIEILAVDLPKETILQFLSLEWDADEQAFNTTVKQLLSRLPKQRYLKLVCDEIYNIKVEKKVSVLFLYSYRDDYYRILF

For the compound `COc1ncc(Cl)cc1S(=O)(=O)Nc1cccc(-c2cnc3cc(N)ncc3c2)c1F` [Example 85], the IC50 on GCN2 kinase is ≤ 100 nM; against PERK kinase, ≤ 100 nM; in the test with CCRF-CEM leukemia cells it was ≤ 100 nM; in test [1], ≤ 100 nM; in test [2], ≤ 100 nM; in test [3], 1000 to 10000 nM.

On to `CNc1cc2nc(OC)c(-c3cccc(NS(=O)(=O)c4cc(Cl)cnc4OC)c3F)cc2cn1` [Example 129], for which the IC50 was ≤ 100 nM at GCN2 kinase; ≤ 100 nM on PERK kinase; ≤ 100 nM in the test with CCRF-CEM leukemia cells; ≤ 100 nM in test [1]; ≤ 100 nM in test [2]; 1000 to 10000 nM in test [3].

As to `CNc1cc2nc(NC)c(-c3cccc(NS(=O)(=O)c4cc(Cl)cnc4OC)c3F)cc2cn1` [Example 114], the IC50 against GCN2 kinase was ≤ 100 nM; against PERK kinase, ≤ 100 nM; in the test on CCRF-CEM leukemia cells, ≤ 100 nM; in test [1], ≤ 100 nM; in test [2] it was 100 to 500 nM; in test [3], 1000 to 10000 nM.

Regarding `CNc1ncc2cc(-c3cccc(NS(=O)(=O)c4cc(Cl)cnc4OC)c3F)c(OC)nc2n1` [Example 66], the IC50 on GCN2 kinase is ≤ 100 nM; at PERK kinase it was ≤ 100 nM; in the test on CCRF-CEM leukemia cells, ≤ 100 nM; in test [1] it was ≤ 100 nM; in test [2] it was ≤ 100 nM; in test [3] it was 1000 to 10000 nM.

On to `CNc1cc2nc(C)c(-c3ccc(F)c(NS(=O)(=O)c4cc(Cl)cc(CO)c4Cl)c3)cc2cn1` [Example 19], for which the IC50 at GCN2 kinase is ≤ 100 nM; against PERK kinase it was ≤ 100 nM; in the test on CCRF-CEM leukemia cells, 100 to 500 nM; in test [1], ≤ 100 nM; in test [2], ≤ 100 nM; in test [3] it was 1000 to 10000 nM.

Regarding `CNc1ncc2cc(-c3cccc(NS(=O)(=O)c4cc(Cl)cnc4OC)c3)c(NC)nc2n1` [Example 15], the IC50 was ≤ 100 nM at GCN2 kinase; 100 to 500 nM at PERK kinase; 100 to 500 nM in the test with CCRF-CEM leukemia cells; ≤ 100 nM in test [1]; 100 to 500 nM in test [2].

In the case of `COc1ncc(Cl)cc1S(=O)(=O)Nc1cccc(-c2cc3cnc(N)cc3nc2C)c1F` [Example 77], the IC50 on GCN2 kinase is ≤ 100 nM; against PERK kinase, ≤ 100 nM; with CCRF-CEM leukemia cells it was ≤ 100 nM; in test [1], ≤ 100 nM; in test [2], ≤ 100 nM; in test [3], 100 to 500 nM.

Regarding `CNc1ncc2cc(-c3cc(NS(=O)(=O)c4cc(Cl)cnc4OC)cc(F)c3F)c(C)nc2n1` [Example 48], the IC50 against GCN2 kinase was ≤ 100 nM; against PERK kinase, 100 to 500 nM; with CCRF-CEM leukemia cells, 100 to 500 nM; in test [1], ≤ 100 nM; in test [2], ≤ 100 nM; in test [3] it was 1000 to 10000 nM.

With `CNc1cc2nc(C)c(-c3cccc(NS(=O)(=O)c4cc(Cl)cc(CO)c4Cl)c3F)cc2cn1` [Example 45], the IC50 was ≤ 100 nM against GCN2 kinase; ≤ 100 nM on PERK kinase; ≤ 100 nM with CCRF-CEM leukemia cells; ≤ 100 nM in test [1]; ≤ 100 nM in test [2]; 100 to 500 nM in test [3].

In the case of `CNc1ncc2cc(-c3cccc(NS(=O)(=O)c4cc(Cl)cnc4OC)c3F)c(NCCO)nc2n1` [Example 97], the IC50 was ≤ 100 nM against GCN2 kinase; 100 to 500 nM against PERK kinase; ≤ 100 nM with CCRF-CEM leukemia cells; ≤ 100 nM in test [1]; 100 to 500 nM in test [2]; 1000 to 10000 nM in test [3].

Turning to `CNc1ncc2cc(-c3cccc(NS(=O)(=O)c4cc(Cl)cnc4OC)c3F)c(C)nc2n1` [Example 3, 5-chloro-N-(2-fluoro-3-(7-methyl-2-(methylamino)pyrido[2,3-d]pyrimidin-6-yl)phenyl)-2-methoxypyridine-3-sulfonamide], the IC50 (at GCN2 kinase; against PERK kinase; with CCRF-CEM leukemia cells; in test [1]; in test [2]) was ≤ 100 nM throughout.

For the compound `CNc1ncc2cc(-c3cc(F)cc(NS(=O)(=O)c4cc(Cl)cnc4OC)c3)c(C)nc2n1` [Example 65], the IC50 on PERK kinase is 100 to 500 nM; with CCRF-CEM leukemia cells it was 100 to 500 nM; in test [1], ≤ 100 nM; in test [2] it was 100 to 500 nM; in test [3] it was 1000 to 10000 nM.
